According to patent US20150259331A1, “PROTOZOAN PARASITE GROWTH INHIBITORS” (Northeastern University, priority 2014, published 2015):

Columns and labels:
P. falciparum W2 = P. falciparum W2 assay; type: cell-based; settings: Plasmodium falciparum; strain W2; read-out: P. falciparum W2 (EC50)
in vitro = settings: for fraction unbound at 4 h, 5 μM: mice plasma
Experimental: Mice plasma (BALB/c mice, male—pool of 3 animals) was collected in-house using K2EDTA as anticoagulant. […] Glipizide (Cat #50402G) was purchased from Apin chemicals, Abingdon, Oxon. Albendazole (Cat #A4673) was purchased from Sigma. Phosphate buffered saline pH 7.4 (0.1 M sodium phosphate and 0.15 M sodium chloride) and RED device inserts were procured from Thermo Scientific, Meridian Rd., Rockford, Ill.
Further 1 mM stock was diluted 200-fold in mice plasma to prepare a concentration of 5 μM. The final DMSO concentration in plasma was 0.5%.
Rapid equilibrium dialysis was performed with a rapid equilibrium dialysis (RED) device containing dialysis membrane with a molecular weight cut-off of 8,000 Daltons. Each dialysis insert contains two chambers. The red chamber is for plasma while the white chamber is for buffer. A 200 μL aliquot of warfarin or test compound at 5 μM (triplicates) was separately added to the plasma chamber and 350 μL of phosphate buffer saline (pH 7.4) was added to the buffer chamber of the inserts. After sealing the RED device with an adhesive film, dialysis was performed at 37° C. with shaking at 100 rpm for 4 hours as per manufacturer's recommendation.
Recovery and stability: A 50 μL aliquot of warfarin or test compound was added to four 0.5 mL microfuse tubes. Two aliquots were frozen immediately (0 minute sample). The other two aliquots were incubated at 37° C. for 4 hours along with the RED device.
Following dialysis, an aliquot of 50 μL was removed from each well (both plasma and buffer side) and diluted with equal volume of opposite matrix (dialyzed with the other matrix) to nullify the matrix effect. Similarly, 50 μL of buffer was added to recovery and stability samples. An aliquot of 100 μL was submitted for LC-MS/MS analysis.
A 25 μL aliquot of warfarin and test compounds were crashed with 100 μL of acetonitrile containing internal standard (glipizide for warfarin and test compound) and vortexed for 5 minutes. The samples were centrifuged at 15,000 rpm at 4° C. for 10 min and 100 μL of supernatant was submitted for LCMS/MS analysis. Samples were monitored for parent compound in MRM mode using LC-MS/MS.

For `Fc1cccc(COc2ccc(Nc3ncnc4ccc(-c5cccc(N6CCOCC6)c5)cc34)cc2Cl)c1` [Compound 23a, N-(3-Chloro-4-((3-fluorobenzyl)oxy)phenyl)-6-(3-morpholinophenyl)quinazolin-4-amine], the EC50 (P. falciparum W2) was 680 nM, the recovery at 4 h, 5 μM (in vitro; male, BALB/c, mouse, pH 7.4) was 100% and the “% Bound Mean (SD)” value (in vitro; male, BALB/c, mouse, plasma, pH 7.4) was 99.6%. The fraction unbound at 4 h, 5 μM (in vitro; male, BALB/c, mouse, plasma, pH 7.4, % Bound R1, replicate 1, 37° C.) was 0.005, the fraction unbound at 4 h, 5 μM (in vitro; male, BALB/c, mouse, plasma, pH 7.4, % Bound R2, replicate 2, 37° C.) was 0.003 and the “% compound remaining at 4 h” value (in vitro; plasma stability, 37° C.) was 85%.
